Laboratory results taken from patent publication US20240349726A1, “SUBSTITUTED 1,2,4-THIADIAZOLYL NICOTINAMIDES, SALTS OR N-OXIDES THEREOF AND THEIR USE AS HERBICIDALLY ACTIVE SUBSTANCES” (Bayer Aktiengesellschaft, priority 2021, published 2024).

Experiments:
Assay type in all cases: in vivo
[1] = tested on: Matricaria inodora; experiment: Herbicidal pre-emergence action, MATIN; conditions: visual grading after ca. 3 weeks vs untreated controls
Description: (§1) Seeds of mono- and dicotyledonous weed plants were sown in plastic pots (double sowings with one species of mono- and one species of dicotyledonous weed plants per pot), in sandy loam, and covered with soil. The compounds according to the invention, formulated in the form of wettable powders (WP) or as emulsifiable concentrates (EC), were applied to the surface of the covering soil as an aqueous suspension or as an emulsion, with the addition of 0.5% of an additive, at an application rate of 600 litres of water per hectare (converted). Following treatment, the pots were placed in a greenhouse and kept under optimum growth conditions for the test plants. The visual grading of the damage to the test plants is carried out after ca. 3 weeks in comparison to untreated controls (herbicidal effect in percent (%): 100% effect=plants have died, 0% effect=as control plants). Seeds of mono- and dicotyledonous weed plants were sown in plastic pots (double sowings with one species of mono- and one species of dicotyledonous weed plants per pot), in sandy loam, and covered with soil. The compounds according to the invention, formulated in the form of wettable powders (WP) or as emulsifiable concentrates (EC), were applied to the surface of the covering soil as an aqueous suspension or as an emulsion, with the addition of 0.5% of an additive, at an application rate of 600 litres of water per hectare (converted). Following treatment, the pots were placed in a greenhouse and kept under optimum growth conditions for the test plants. The visual grading of the damage to the test plants is carried out after ca. 3 weeks in comparison to untreated controls (herbicidal effect in percent (%): 100% effect=plants have died, 0% effect=as control plants).

[2] = tested on: Stellaria media; experiment: Herbicidal pre-emergence action, STEME; conditions: visual grading after ca. 3 weeks vs untreated controls
Description: as §1

[3] = tested on: Veronica persica; experiment: Herbicidal pre-emergence action, VERPE; conditions: 1280 g/ha, visual grading after ca. 3 weeks vs untreated controls
Description: as §1

[4] = tested on: Poa annua; experiment: Herbicidal pre-emergence action, POAAN; conditions: visual grading after ca. 3 weeks vs untreated controls
Description: as §1

[5] = tested on: Amaranthus retroflexus; experiment: Herbicidal pre-emergence action, AMARE; conditions: 1280 g/ha, visual grading after ca. 3 weeks vs untreated controls
Description: as §1

[6] = tested on: Stellaria media; experiment: Herbicidal post-emergence action, STEME; conditions: assessed visually after ca. 3 weeks vs untreated controls
Description: (§2) Seeds of mono- and dicotyledonous weed plants were sown in plastic pots (double sowings with one species of mono- and one species of dicotyledonous weed plants per pot), in sandy loam, covered with soil and grown under controlled growth conditions. 2 to 3 weeks after sowing, the test plants were sprayed in the single-leaf stage. The compounds according to the invention, formulated in the form of wettable powders (WP) or as emulsifiable concentrates (EC), were sprayed onto the green plant parts as an aqueous suspension or as an emulsion, with the addition of 0.5% of an additive, at an application rate of 600 litres of water per hectare (converted). The test plants were placed in the greenhouse for ca. 3 weeks under optimum growth conditions, and then the effect of the preparations is assessed visually in comparison with untreated controls (herbicidal effect in percent (%): 100% effect=plants have died, 0% effect=as control plants). […]

[7] = tested on: Veronica persica; experiment: Herbicidal post-emergence action, VERPE; conditions: assessed visually after ca. 3 weeks vs untreated controls
Description: as §2

[8] = tested on: Amaranthus retroflexus; experiment: Herbicidal post-emergence action, AMARE; conditions: assessed visually after ca. 3 weeks vs untreated controls
Description: as §2

[9] = tested on: Lolium rigidum; experiment: Herbicidal pre-emergence action, LOLRI; conditions: visual grading after ca. 3 weeks vs untreated controls
Description: as §1

[10] = tested on: Poa annua; experiment: Herbicidal post-emergence action, POAAN; conditions: assessed visually after ca. 3 weeks vs untreated controls
Description: as §2

[11] = tested on: Alopecurus myosuroides; experiment: Herbicidal post-emergence action, ALOMY; conditions: 1280 g/ha, assessed visually after ca. 3 weeks vs untreated controls
Description: as §2

[12] = tested on: Kochia scoparia; experiment: Herbicidal post-emergence action, KCHSC; conditions: assessed visually after ca. 3 weeks vs untreated controls
Description: as §2

[13] = tested on: Abutilon theophrasti; experiment: Herbicidal post-emergence action, ABUTH; conditions: assessed visually after ca. 3 weeks vs untreated controls
Description: as §2

[14] = tested on: Matricaria inodora; experiment: Herbicidal post-emergence action, MATIN; conditions: assessed visually after ca. 3 weeks vs untreated controls
Description: as §2

[15] = tested on: Lolium rigidum; experiment: Herbicidal post-emergence action, LOLRI; conditions: 1280 g/ha, assessed visually after ca. 3 weeks vs untreated controls
Description: as §2

SMILES	herbicidal effect MATIN ([1]; 1280 g/ha)	herbicidal effect STEME ([2]; 1280 g/ha)	herbicidal effect POAAN ([4]; 1280 g/ha)	herbicidal effect AMARE [5]	herbicidal effect STEME ([6]; 1280 g/ha)	herbicidal effect VERPE ([7]; 1280 g/ha)	herbicidal effect AMARE ([8]; 320 g/ha)	herbicidal effect AMARE ([8]; 1280 g/ha)	herbicidal effect KCHSC ([12]; 1280 g/ha)	herbicidal effect MATIN ([14]; 1280 g/ha)	further results
Cc1ccnc(Cl)c1C(=O)Nc1ncns1 [Example I-003]	100%	100%	100%	100%	90%	100%	90%	90%	–	–	herbicidal effect VERPE [3]: 90%; herbicidal effect VERPE ([7]; 320 g/ha): 90%
CCc1ccnc(Cl)c1C(=O)Nc1ncns1 [Example I-004]	90%	100%	90%	90%	–	100%	–	100%	–	–	herbicidal effect LOLRI ([9]; 1280 g/ha): 100%; herbicidal effect POAAN ([10]; 1280 g/ha): 100%
Cc1nsc(NC(=O)c2c(C(F)(F)F)ccnc2F)n1 [Example I-008]	–	90%	–	90%	100%	90%	–	100%	–	–	herbicidal effect ALOMY [11]: 90%; herbicidal effect STEME ([6]; 320 g/ha): 90%
COc1nccc(C(F)(F)F)c1C(=O)Nc1ncns1 [Example I-010]	100%	90%	100%	–	–	100%	100%	100%	100%	–	herbicidal effect LOLRI ([9]; 1280 g/ha): 100%; herbicidal effect VERPE ([7]; 320 g/ha): 100%; herbicidal effect POAAN ([10]; 320 g/ha): 90%; herbicidal effect POAAN ([10]; 1280 g/ha): 90%
Cc1ccncc1C(=O)Nc1ncns1 [Example I-011]	90%	90%	100%	100%	–	–	–	–	–	–	herbicidal effect STEME ([2]; 320 g/ha): 90%; herbicidal effect POAAN ([4]; 320 g/ha): 90%
O=C(Nc1nc(C(F)(F)F)ns1)c1cnccc1C(F)(F)F [Example I-013]	–	–	–	100%	100%	100%	90%	100%	100%	100%	herbicidal effect ABUTH ([13]; 1280 g/ha): 100%; herbicidal effect MATIN ([14]; 320 g/ha): 100%; herbicidal effect VERPE ([7]; 320 g/ha): 100%
O=C(Nc1nc(Br)ns1)c1cnccc1C(F)(F)F [Example I-014]	–	–	–	–	100%	100%	–	100%	90%	100%	herbicidal effect STEME ([6]; 320 g/ha): 90%
Cc1cc(Cl)nc(Cl)c1C(=O)Nc1ncns1 [Example I-020, 2,6-dichloro-4-methyl-N-(1,2,4-thiadiazol-5-yl)pyridine-3-carboxamide]	90%	100%	–	90%	90%	100%	–	90%	–	90%	herbicidal effect STEME ([2]; 320 g/ha): 90%
O=C(Nc1ncns1)c1c(C(F)(F)F)ccnc1Cl [Example I-021]	100%	100%	100%	100%	100%	100%	100%	100%	100%	100%	herbicidal effect LOLRI ([9]; 320 g/ha): 90%; herbicidal effect LOLRI ([9]; 1280 g/ha): 100%; herbicidal effect MATIN ([1]; 320 g/ha): 90%; herbicidal effect STEME ([2]; 320 g/ha): 90%; herbicidal effect VERPE [3]: 90%; herbicidal effect POAAN ([4]; 320 g/ha): 90%; herbicidal effect ABUTH ([13]; 320 g/ha): 90%; herbicidal effect ABUTH ([13]; 1280 g/ha): 100%; herbicidal effect KCHSC ([12]; 320 g/ha): 90%; herbicidal effect LOLRI [15]: 90%; herbicidal effect MATIN ([14]; 320 g/ha): 100%; herbicidal effect STEME ([6]; 320 g/ha): 90%; herbicidal effect VERPE ([7]; 320 g/ha): 100%; herbicidal effect POAAN ([10]; 1280 g/ha): 100%
Cc1ccnc(Br)c1C(=O)Nc1ncns1 [Example I-022, 2-bromo-4-methyl-N-(1,2,4-thiadiazol-5-yl)pyridine-3-carboxamide]	–	100%	–	–	90%	–	–	90%	–	–	–
Cc1cc(F)ncc1C(=O)Nc1ncns1 [Example I-023]	100%	90%	100%	90%	–	–	–	90%	–	–	–
O=C(Nc1ncns1)c1cnc(Cl)cc1C(F)(F)F [Example I-024]	90%	–	–	–	–	90%	–	90%	–	100%	herbicidal effect MATIN ([14]; 320 g/ha): 90%
CC(C)c1ccnc(Cl)c1C(=O)Nc1ncns1 [Example I-026, 2-chloro-4-isopropyl-N-(1,2,4-thiadiazol-5-yl)pyridine-3-carboxamide]	100%	100%	–	100%	100%	90%	90%	100%	90%	–	herbicidal effect LOLRI ([9]; 1280 g/ha): 100%; herbicidal effect STEME ([2]; 320 g/ha): 90%
COc1nccc(C(C)C)c1C(=O)Nc1ncns1 [Example I-027]	–	90%	–	–	–	–	–	–	–	–	–
